Values after ≈ are worked out from the molar mass of the structure shown. Values joined by “and” are separate entries in the source; they are usually repeats but may differ in a detail not shown here. Equal values may be shown once. Read-outs that look alike come from different tables or passages of the source. Bridge positions count the residues as written; N and C are the ends. Square brackets hold non-standard residues; d marks the D form. Ends that are not written are not given here. Peptide text beside a SMILES is read from it. I, II: the chains in the order shown.
What was measured:
E. coli ATCC 25922 = test: MIC/MBC, broth microdilution and subculture on CA-MH agar; assay type: cell-based; set-up: key to Act (antibacterial activity): Bc, bactericidal; Bs, bacteriostatic; conditions: for MIC: broth microdilution; for MIC / MBC: triplicate, mode; for MBC: subculture on CA-MH agar, 37 °C, 24 h
Protocol: (§1) Bacterial isolates from the American Type Culture Collection (ATCC) were obtained from the Collection of Reference Bacteria on Health Surveillance, Oswaldo Cruz Foundation (FIOCRUZ) after phenotypic and molecular quality control and were registered at SISGEN under the number ADB556B. The minimum inhibitory concentration (MIC) was determined as previously described by Santos-Filho et al., 2021 [17], using the broth microdilution method. The MIC was the lowest concentration that inhibited microbial growth. […] MBC was defined as the lowest peptide concentration with no visible growth on the plate. […] The assay was performed in triplicate, and the values represent the mode of the obtained results.
(§2) Thus, to assess the relevance of the antimicrobial effect of p-Bth analogs, their Minimum Inhibitory Concentration (MIC) and Minimum Bactericidal Concentration (MBC) were analyzed against relevant bacteria. The evaluated strains were the Gram-positives: S. aureus ATCC 25923, S. epidermidis ATCC 35984, E. faecalis ATCC 29212, and E. faecium ATCC […] (Table 1); and the Gram-negatives: K. pneumoniae ATCC 700603, E. coli ATCC 25922, A. baumannii ATCC 19606, and P. aeruginosa ATCC 27853 (Table 2).

E. faecalis ATCC 29212 = test: as above; assay type: cell-based; set-up: key to Act (antibacterial activity): Bc, bactericidal; Bs, bacteriostatic; conditions: for MIC: broth microdilution; for MIC / MBC: triplicate, mode; for MBC: subculture on CA-MH agar, 37 °C, 24 h
Protocol: as §1, §2

[1] = tested on: S. epidermidis ATCC 35984; test: as above; assay type: cell-based; set-up: key to Act (antibacterial activity): Bc, bactericidal; Bs, bacteriostatic; conditions: for MIC: broth microdilution; for MIC / MBC: triplicate, mode; for MBC: subculture on CA-MH agar, 37 °C, 24 h
Protocol: as §1, §2

[2] = tested on: K. pneumoniae ATCC 700603; test: as above; assay type: cell-based, Klebsiella pneumoniae; set-up: key to Act (antibacterial activity): Bc, bactericidal; Bs, bacteriostatic; conditions: for MIC: broth microdilution; for MIC / MBC: triplicate, mode; for MBC: subculture on CA-MH agar, 37 °C, 24 h
Protocol: as §1, §2

P. aeruginosa ATCC 27853 = test: as above; assay type: cell-based, Pseudomonas aeruginosa; set-up: key to Act (antibacterial activity): Bc, bactericidal; Bs, bacteriostatic; conditions: for MIC: broth microdilution; for MIC / MBC: triplicate, mode; for MBC: subculture on CA-MH agar, 37 °C, 24 h
Protocol: as §1, §2

SARS-CoV-2 = conditions: Vero cells; cited from earlier work
Excerpt: In December 2019, the first case of viral infection with a new coronavirus was reported in China, which was later named severe acute respiratory syndrome coronavirus 2 (SARS-CoV-2), and the disease caused by this was named coronavirus-2019 or COVID-19 by the WHO. This disease has taken on great proportions, causing a pandemic scenario and great global concern. Even with the improvements in disease control, there is still a need for new, specific antiviral therapeutic options. As antimicrobial peptides also have antiviral action, the L-dimer, D-dimer and L-tetramer, in addition to ...

A. baumannii ATCC 19606 = test: MIC/MBC, broth microdilution and subculture on CA-MH agar; assay type: cell-based, Acinetobacter baumannii; set-up: key to Act (antibacterial activity): Bc, bactericidal; Bs, bacteriostatic; conditions: for MIC: broth microdilution; for MIC / MBC: triplicate, mode; for MBC: subculture on CA-MH agar, 37 °C, 24 h
Protocol: as §1, §2

SARS-CoV-2 PL^pro [3] = target: T1, SARS-CoV-2 PL^pro (Severe acute respiratory syndrome coronavirus 2, UniProt P0DTD1); conditions: PL^pro from SARS-CoV-2, ref 19 (Freire et al., 2021), cited from earlier work
T1 construct: made in house
Protocol: Table 3 PL^pro activity by peptide analogs of p-BThTX-I at the concentration of 10 μM and IC50 values. Representative concentration–response inhibition curves against PL^pro from SARS-CoV-2 are presented in the Supplementary Material (Figure S7). | column: Inhibition (%) at 10 µM; IC50 μM

S. aureus ATCC 25923 = test: MIC/MBC, broth microdilution and subculture on CA-MH agar; assay type: cell-based, Staphylococcus aureus; set-up: key to Act (antibacterial activity): Bc, bactericidal; Bs, bacteriostatic; conditions: for MIC: broth microdilution; for MIC / MBC: triplicate, mode; for MBC: subculture on CA-MH agar, 37 °C, 24 h
Protocol: as §1, §2

E. faecium ATCC 700221 = test: as above; assay type: cell-based, Enterococcus faecium; set-up: key to Act (antibacterial activity): Bc, bactericidal; Bs, bacteriostatic; conditions: for MBC: subculture on CA-MH agar, 37 °C, 24 h
Protocol: as §1, §2

SARS-CoV-2 PL^pro [4] = target: T1, SARS-CoV-2 PL^pro; test: PL^pro enzymatic inhibition assay; assay type: biochemical; conditions: PL^pro from SARS-CoV-2
[5] = MBC/MIC ratio >4 suggests bacteriostatic

Compound	MIC (E. coli ATCC 25922)	MBC (E. coli ATCC 25922) [µg/mL]	MIC (E. faecalis ATCC 29212)	MBC (E. faecalis ATCC 29212) [µg/mL]	MIC [1]	MBC [1] [µg/mL]	MIC [2]	MBC [2] [µg/mL]	MIC (P. aeruginosa ATCC 27853)	MBC (P. aeruginosa ATCC 27853) [µg/mL]	MIC (A. baumannii ATCC 19606)	MBC (A. baumannii ATCC 19606) [µg/mL]	MIC (S. aureus ATCC 25923)	MBC (S. aureus ATCC 25923) [µg/mL]	MBC (E. faecium ATCC 700221; triplicate, mode) [µg/mL]	other results
I: KKYRYHLKPFKK-NH2 / II: KKYRYHLKPFK / III: KKYRYHLKPF / IV: KKYRYHLKPF (amide I:11-IV:C, I:12-II:C, II:11-III:C) [L-tetramer]	32 μg/mL and 5 µM	>128	10 µM and 64 μg/mL	128	16 µg/mL	32	32 μg/mL and 5 µM	>128	32 μg/mL and 5 µM	64	5 µM and 32 μg/mL	64	64 μg/mL and 10 µM	256	32	Act (antibacterial activity) (E. coli ATCC 25922; [5]): Bs; Act (antibacterial activity) (E. faecalis ATCC 29212; [5]): Bc; Act (antibacterial activity) [1, 5]: Bc; Act (antibacterial activity) [2, 5]: Bs; Act (antibacterial activity) (P. aeruginosa ATCC 27853; [5]): Bc; percentage inhibition of SARS-CoV-2 infection (SARS-CoV-2): 54%; Act (antibacterial activity) (A. baumannii ATCC 19606; [5]): Bc; Inhibition (%) at 10 µM (SARS-CoV-2 PL^pro [3]; peptide 10 µM): 98.40 ± 0.00%; IC50 (SARS-CoV-2 PL^pro [3]): 1.4 ± 0.02 µM; Act (antibacterial activity) (S. aureus ATCC 25923; [5]): Bc; Act (antibacterial activity) (E. faecium ATCC 700221; [5]): Bc
CC(C)C[C@@H](NC(=O)[C@@H](Cc1c[nH]cn1)NC(=O)[C@@H](Cc1ccc(O)cc1)NC(=O)[C@@H](CCCNC(=N)N)NC(=O)[C@@H](Cc1ccc(O)cc1)NC(=O)[C@@H](CCCCN)NC(=O)[C@H](N)CCCCN)C(=O)N[C@H](CCCCN)C(=O)N1CCC[C@@H]1C(=O)N[C@H](Cc1ccccc1)C(N)=O [D-monomer] (H-[dK][dK][dY][dR][dY][dH][dL][dK][dP][dF]-NH2)	185 µM (≈ 255 µg/mL)	256 (≈ 186 µM)	>371 µM	>512	>371 µM	>512	371 µM (≈ 511 µg/mL)	512 (≈ 371 µM)	>371 µM	>512	>371 µM	>512	>371 µM	>512	>512	inhibition at 10 µM (SARS-CoV-2 PL^pro [4]; peptide 10 µM): 85 ± 3%; IC50 (SARS-CoV-2 PL^pro [4]; two independent experiments): 3 ± 1 µM; MIC (E. faecium ATCC 700221; broth microdilution, triplicate, mode): >371 µM

Reference: article PMC9964244, “Effects of Dimerization, Dendrimerization, and Chirality in p-BthTX-I Peptide Analogs on the Antibacterial Activity and Enzymatic Inhibition of the SARS-CoV-2 PL^pro Protein” (Pharmaceutics, 2023)
